How the values were obtained:
[1] = Diffusion between droplets: naringenin droplets co-incubated with sensor cell droplets; type: physicochemical; details: droplets with 500 μM naringenin mixed with sensor cell droplets; 1% Ran Fluorosurfactant in HFE7500; FIG. 6
Experimental: FIG. 6 is an image showing fluorescence of two sets of droplet co-incubated for 24 hours. The first set of droplets contained 500 μM naringenin and the second set of droplets contained naringenin sensor cells. If diffusion was occurring between the droplets, the sensor cells would become fluorescent over the 24 hour period.
2E6 pNARnull, 2E6 pNAR^low, 2E6 pNARhigh, were co-cultured with the E. coli BW25113 Δptsl::kanR pSENSORGFP-PtsI sensor strain described in Example 3. The four cultures were grown overnight in LB medium, subdiluted 1 to 100 in minimal medium supplemented with the appropriate antibiotic and then grown into log phase. Once in log phase, the E. coli were rinsed 3× with 1× filtered M9 salts and then diluted to an OD600 of 1.0. The 2E6 strains were diluted to an OD600 of 0.01 to ensure that a single producer strain is present in each encapsulated droplet and the sensor cells were diluted to 0.1 to ensure that each droplet gets at least 5 sensor cells. Six sets of droplets were produced, (1) sensor cell only, (2) sensor cell with 500 μM naringenin, (3) 2E6 pNARhigh with sensor cell and 1 mM IPTG, (4) 2E6 pNARnull with sensor cell and 1 mM IPTG, (5), 2E6 pNARlow with sensor cell and 1 mM IPTG, and (6) naringenin only droplets. […] Double emulsions were analyzed under the microscope prior to FACS analysis. […]

[2] = tested on: E. coli BW25113 Δptsl::kanR pSENSORGFP-PtsI sensor strain; assay: GFP fluorescence of sensor cells encapsulated in droplets with naringenin (microscope); type: cell-based; details: 500 μM naringenin with sensor cells; 33° C., 48 hours; FIG. 5d
Description: FIGS. 4A-B establish co-culturing of producer cells and sensor cells as a viable strategy for screening. Sensor cells were engineered in an E. coli BW25113 Δptsl::kanR background, which is unable to grow on glucose as a sole carbon source. The glucose transporter ptsl and fluorescence reporter gfp were expressed co-cistronically under the control of a TtgR-regulated promoter on the plasmid pSENSORGFP-PtsI, such that growth and the magnitude of GFP signal are naringenin-dependent. […] Following incubation, the water-in-oil droplets were encapsulated in another aqueous phase, generating water-in-oil-in-water droplets, which were observed on a standard fluorescence activated cell sorter (FACS). […]
2E6 pNARnull, 2E6 pNAR^low, 2E6 pNARhigh, were co-cultured with the E. coli BW25113 Δptsl::kanR pSENSORGFP-PtsI sensor strain described in Example 3. […] Double emulsions were analyzed under the microscope prior to FACS analysis. […]

TtgR = TtgR sensor GFP response of MAGE-engineered E. coli MG1655 mutants to exogenously applied naringenin; type: cell-based; details: naringenin 0, 31, 63 or 125 μM; three MAGE-engineered E. coli MG1655 clones, medium-copy plasmid with TtgR and gfp
Description: The three clones were transformed with a medium-copy plasmid harboring TtgR and gfp under the control of an engineered ttgAp promoter. […] No naringenin pathway enzymes were present during these experiments, eliminating any interference by endogenously produced naringenin. The variation was not resolved upon transferring the sensor system to the genome (not shown) or switching to a high-copy sensor plasmid (FIG. 2A).

## O=C1C[C@@H](c2ccc(O)cc2)Oc2cc(O)cc(O)c21 [naringenin]
[1]
  diffusion between droplets: no diffusion between droplets
[2]
  fluorescence of positive control droplets: very fluorescent
TtgR
  GFP expression induced in TtgR sensor strains: induced different levels of GFP expression

Source: patent publication US20200399632A1, “SENSOR SYSTEMS” (enEvolv, Inc., priority 2018, published 2020)
